Patent US6703404B2, “Tert -butyl-(7-methyl-imidazol [1,2-a]pyridin-3-yl)-amine derivatives” (Gruenenthal GmbH, priority 1999, dated 2004)
Structures can show the parent of a compound that is named as a salt.

Columns and labels:
NO synthase [1] = molecular target: T1, NO synthase (Rattus norvegicus, UniProt P29476); assay: HTS-NOS assay (labelled arginine, filter plate); type: biochemical; design: from tissue; host or cells: rat cerebellum (20,000 g supernatant of homogenate); details: 10 μm test substance; enzyme from rat cerebellum
Method: This assay enabled the percentage inhibition of NO synthase to be determined by measuring the NOS activity on the action of the active ingredient. NO synthase was mixed with radioactively labelled arginine and the active ingredient under suitable conditions. After terminating the NO-forming reaction at a predetermined time, the amount of unreacted arginine was determined directly or indirectly. Comparison of this amount with the amount of arginine remaining from a mixture of NOS and arginine without the addition of active ingredient but under conditions which were otherwise the same gave the % inhibition of NO synthase by the active ingredient tested. This assay was performed as follows:
(a) Incubation of NO synthase, with labelled arginine as a substrate, in a reaction vessel.
(b) Separation of the labelled arginine from any labelled citrulline which was formed as a product of the enzymatic reaction at a time at which the concentration of citrulline was increasing.
(c) Measuring the amount of arginine separated in each case.
Separation was effected through a filter plate membrane.
This NOS assay was particularly suitable for “High Throughput Screening” (HTS) on microtitration plates (MTPs).
In this HTS-NOS assay, radioactive arginine was used as the substrate. The assay volume can be selected within the range from […] depending on the type of microtitration plate (MTP). Cofactors and coenzymes were added depending on the enzyme source used. Batches were incubated in this microtitration plate (assay MTP) according to step (a) at room temperature, for between 5 and 60 minutes depending on the enzyme activity (units) employed. At the end of the incubation (step (a)) the plate was placed in a cell harvester which was fitted with an MTP comprising a cation exchange membrane filter base (filter MTP). All the batches from the assay MTP were transferred to this filter MTP and were filtered off under suction through a cation exchange filter plate comprising a paper filter containing phosphate groups. […] By means of this procedure, the remaining arginine substrate was bound to the cation exchanger, whilst the enzymatically formed radioactive citrulline was quantitatively removed by washing. After drying the filter MTP and adding a scintillation liquid, the bound arginine was counted in a scintillation counter. An uninhibited NOS reaction was manifested by a low level of radioactivity. An inhibited enzyme reaction meant that the radioactive arginine had not reacted, i.e. the filter contained a high level of radioactivity. […]
The contents of the assay MTP were subsequently transferred by means of a 96-well cell harvester into a 96-well cation exchanger MTP (filter MTP) and was filitered under suction. […] After a holding time of 1 hour, the plate was measured in a βcounter. […]

NO synthase [2] = molecular target: T1, NO synthase; assay: Citrulline assay (Bredt and Snyder); type: biochemical
Method: This assay was performed as described by D. S. Bredt and S. H. Snyder (Proc. Natl. Acad. Sci. USA (1990), 87, 682-85).

Molecule | HTS-NOS assay: %-inhibition (10 μm) (NO synthase [1]) | IC50 (NO synthase [2]) | also measured
Cc1cc(C)n2c(NC(C)(C)C)c(C3CCCCC3)nc2c1 [Example 5, tert-butyl-(2-cyclohexyl-5,7-dimethyl-imidazo[1,2-a]pyridin-3-yl)-amine] |  |  | inhibition at 10 µM (NO synthase [1]): 63%
Cc1cc(C)n2c(NC(C)(C)C)c(-c3ccc([N+](=O)[O-])o3)nc2c1 [Example 9] | 59% |  | 
Cc1ccn2c(NC(C)(C)C)c(-c3ccc(C(=O)O)s3)nc2c1 [Example 17, 5-(3-tert-butylamino-7-methyl-imidazo[1,2-a]pyridin-2-yl)-thiophen-12-carboxylic acid] | 61% |  | 
Cc1cc(C)n2c(NC(C)(C)C)c(-c3ccco3)nc2c1 [Example 18, tert-butyl-(2-furan-2-yl-5,7-dimethyl-imidazo[1,2-a]pyridin-3-yl)amine hydrochloride] |  | 2800 nM | 
Cc1ccn2c(NC(C)(C)C)c(-c3ccccc3)nc2c1 [Example 19, tert-butyl-(7-methyl-2-phenylimidazo[1,2-a]pyridin-3-yl)amine hydrochloride] |  | 2400 nM | 
Cc1cc(C)n2c(NC(C)(C)C)c(C)nc2c1 [Example 20, tert-butyl-(2,5,7-trimethyl[1,2-a]pyridin-3-yl)amine hydrochloride] |  | 9200 nM | 
[5-(3-tert-butyl-7-methyl-imidazo[1,2-a]pyridin-2-yl)-furan-2-yl]-methanol [Example 10] | 52% |  | 
